Measurements published in PMC11203266, “Continuous evolution of compact protein degradation tags regulated by selective molecular glues” (Science (New York, N.Y.), 2024).

Experiments:
SD40–BRD4 = experiment: Immunoblot, endogenous SD40-tagged BRD4 in K562 cells; format: cell-based, human; conditions: 24 hrs
Text: Next, we evaluated the installation of SD40 at endogenous genomic target genes in mammalian cells using twin prime editing (twin PE) ([54], [75]). We optimized prime editing parameters, including spacer position and prime editor construct ([30]), to insert SD40 at the C-terminus of PLK1 with 26% editing efficiency and 8.8% indel byproducts in HEK293T cells (Fig. 3E, fig. S13), enabling rapid isolation of a homozygous PLK1-SD40 cell line. PLK1 is an essential cell-state regulator ([76]), and complete knockdown for 24 hours is cytotoxic. […] We also used twin prime editing to install SD40 at the N-terminus of BRD4 yielding 7.7% knock-in of SD40 in K562 cells (Fig. 3E, S13) with 4.3% indel byproducts. […] For comparison, we also attempted scarless insertion of SD40 and FKBP12^F36V from the dTag system (324 base pairs) ([17]) at the N-terminus of BRD4 using Cas9 nuclease-directed HDR using two different sgRNAs and a double-strand donor DNA template. […]
HEK293T or K562 cells were plated at a density of 1.6 x 10^5 cells/well in a 24-well plate coated with poly-D-lysine (Corning) in 1 mL media (DMEM + 10% FBS for HEK293T cells and RPMI + 10% FBS for K562 cells). […] Protein concentration in clarified lysates was quantified using Pierce BCA Protein Assay Kit (Thermo Scientific) according to the manufacturer’s protocol. […]

MM.1S cells = experiment: Whole-transcriptome RNA-Seq; format: cell-based, human; conditions: for differentially expressed genes: 1 μM, 48 hrs, fold-change > 2, FDR-corrected P < 0.01
Procedure: The effect of small molecule treatment on transcriptome-wide RNA expression was evaluated using bulk RNA sequencing of 5 biological replicates per sample. […] 48 hours following treatment, cells were washed with PBS and lysed in RLT buffer (Qiagen) with β-mercaptoethanol. Total RNA from each sample was purified from 2–4×10^5 cells using the RNeasy Mini Kit (Qiagen) with on-column DnaseI digestion and eluted in nuclease-free water. Polyadenylated RNA was sequenced using Smart-seq2 as previously described ([82]) with two changes: 20 ng of total RNA and Maxima Rnase H-minus reverse transcriptase (Thermo Fisher) were used for the initial reverse transcription step. The resulting cDNA libraries were sequenced on an Illumina NextSeq 550 High Output kit with the following run parameters: 37 cycles for read1, 37 cycles for read2, 8 cycles for index1, and 8 cycles for index2.
Sequencing data were demultiplexed with bcl2fastq and roughly 40 million paired-end reads were obtained per sample. Transcript-level quantification was performed using kallisto ([83]) with the homo sapiens GRCh38 reference transcriptome and with bootstrapping. Differential expression analysis at the gene level was conducted using Deseq2 with batch correction of biological replicates ([84]). To pre-filter low count genes, only genes with at least 10 counts in at least 5 samples were analyzed. Compared between conditions, genes with a transcript abundance fold-change > 2 and with a false discovery rate-corrected P-value < 0.01 were called as differentially expressed.

full-length CRBN = target: T1, full-length CRBN (Homo sapiens, UniProt Q96SW2); experiment: Full-length CRBN MG-PACE circuit luminescence assay; format: cell-based; conditions: pomalidomide; degron SD0; vs DMSO
T1 construct: Full-length CRBN MG-PACE circuit; expressed in transfected cells; host or cells: E. coli S2060
T1 sequence (Q96SW2 whole entry): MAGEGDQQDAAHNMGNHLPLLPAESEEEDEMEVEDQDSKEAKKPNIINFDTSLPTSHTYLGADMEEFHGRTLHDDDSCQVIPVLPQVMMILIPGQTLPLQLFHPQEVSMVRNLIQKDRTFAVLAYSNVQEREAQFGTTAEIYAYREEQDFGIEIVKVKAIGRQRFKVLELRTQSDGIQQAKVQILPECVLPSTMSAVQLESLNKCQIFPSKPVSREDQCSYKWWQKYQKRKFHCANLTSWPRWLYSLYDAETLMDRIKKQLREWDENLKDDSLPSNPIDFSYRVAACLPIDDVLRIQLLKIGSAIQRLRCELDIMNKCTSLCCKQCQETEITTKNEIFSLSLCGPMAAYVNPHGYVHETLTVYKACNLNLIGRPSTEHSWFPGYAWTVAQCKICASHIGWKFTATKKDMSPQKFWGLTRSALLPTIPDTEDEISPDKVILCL
Text: To evolve ZFs that engage PT-179-bound CRBN, we constructed an MG-PACE circuit using the CRBN•IMiD•ZF molecular glue complex. […] We translationally fused CRBN to the DNA-binding protein RR69 and fused SD0 to the RNAP ω-subunit, then measured transcriptional activation by luminescence (Fig. 2A).
Chemically competent S2060 cells were co-transformed with accessory and complementary plasmids (Table S1).

Structure (SMILES) | SD40–BRD4 degradation (in words) (SD40–BRD4) | differentially expressed genes (MM.1S cells) | decrease in the frequency of gene expression perturbation (MM.1S cells; PT-179 vs pomalidomide) | maximal transcriptional activation (full-length CRBN)
O=C1CCC(N2C(=O)c3ccc(N4CCOCC4)cc3C2=O)C(=O)N1 (centres unmarked) [PT-179] | robust degradation | three | 475 fold | 
Nc1cccc2c1C(=O)N(C1CCC(=O)NC1=O)C2=O (centres unmarked) [pomalidomide, reference compound] |  | 1,426 genes |  | 7 fold
